Target: T1, PDE9A2 (Homo sapiens, UniProt O76083)
T1 construct: purchased Reaction Biology Corporation, Malvern, Pa
Experiment: Phosphodiesterase Enzyme Screening Assay, PDE9A2 (Caliper LabChip mobility-shift)
Assay type: biochemical
Details: 10 concentrations, 4.0 μM cGMP substrate, 1 hour at R.T.; read-out: Band (PDE9A2 IC50)
From the text: Compounds of the invention were screened against PDE1A, PDE1B, PDE2A, PDE3A, PDE3B, PDE4A1A, PDE4B1, PDE4D3, PDE5A1, PDE6C, PDE7A, PDE8A1, PDE9A2, PDE10A2 AND PDE11A isoforms of the phosphodiesterase enzyme to determine activity and overall selectivity through comparative analysis. The assay generally consists of testing the compounds of the invention at 10 concentrations. Where 8-methoxy-IBMX and Zaprinast were used as reference inhibitors.
The phosphodiesterase enzyme isoforms were obtained from a commercial retailer (Reaction Biology Corporation, Malvern, Pa.) for use in the instant screening assay.
The analysis was completed using the Caliper LabChip 3000 and a 12-sipper LabChip. LabChip assays are separations-based, meaning that the product and substrate are electrophoretically separated, thereby minimizing interferences and yielding the highest data quality available on any screening platform. Z′ factors for both the EZ Reader and LC3000 enzymatic assays are routinely in the 0.8 to 0.9 range. High Z′ values, few false positives, few false negatives and analytical quality reproducibility are the reasons cited for the increasing reliance on the LabChip assays.
The off-chip incubation mobility-shift phosphodiesterase assay uses a microfluidic chip to measure the conversion of a fluorescent cyclic AMP substrate to a 5′-AMP product, or a cyclic GMP substrate to a 5′-GMP product. The reaction mixture, from a microtiter plate well, is introduced through a capillary sipper onto the chip, where the fluorescent substrate and product are separated by electrophoresis and detected via laser-induced fluorescence. […] The precision of microfluidics allows researchers to detect subtle interactions between drug candidates and therapeutic targets. The technology is able to detect both strong and weak inhibitors with high accuracy, and routinely identifies drug candidates that conventional techniques miss.
Reactions were carried out in 100 mM HEPES (pH 7.5), 5 mM MgCl2, 1 mM DTT, 0.003% Brij, 4.0 μM cGMP substrate. The reaction was started by addition of cGMP or cAMP and incubated for 1 hour at R.T. The reaction was terminated by the addition of stop buffer containing 100 mM HEPES (pH 7.5), 15 mM EDTA, 0.015% Brij-35, 5% DMSO. Cyclic AMP/GMP substrate and 5′-AMP/5′-GMP product were separated by charge using electrophoretic mobility shift. Product formed was compared to control wells to determine inhibition or enhancement of enzyme activity.
One or more reference compounds, depending on phosphodiesterase isoform, selected from 8-methoxy-IBMX, Zaprinast, Trequinsin, Pentoxifyline, Rolipram, and Vinpocetine, Dipyridamole, and BRL-50481 were run alongside client samples to ensure data quality. The resulting IC50 is compared against the historical average and must be within 3-fold of this average.
Data points were averages of quadruplicate wells and error bars represented the SEM for each point. IC50s were determined using GraphPad Prism Version 5.01 and the log (inhibitor) vs. response variable slope curve fit.

T1 sequence (O76083 1-533 isoform O76083-2): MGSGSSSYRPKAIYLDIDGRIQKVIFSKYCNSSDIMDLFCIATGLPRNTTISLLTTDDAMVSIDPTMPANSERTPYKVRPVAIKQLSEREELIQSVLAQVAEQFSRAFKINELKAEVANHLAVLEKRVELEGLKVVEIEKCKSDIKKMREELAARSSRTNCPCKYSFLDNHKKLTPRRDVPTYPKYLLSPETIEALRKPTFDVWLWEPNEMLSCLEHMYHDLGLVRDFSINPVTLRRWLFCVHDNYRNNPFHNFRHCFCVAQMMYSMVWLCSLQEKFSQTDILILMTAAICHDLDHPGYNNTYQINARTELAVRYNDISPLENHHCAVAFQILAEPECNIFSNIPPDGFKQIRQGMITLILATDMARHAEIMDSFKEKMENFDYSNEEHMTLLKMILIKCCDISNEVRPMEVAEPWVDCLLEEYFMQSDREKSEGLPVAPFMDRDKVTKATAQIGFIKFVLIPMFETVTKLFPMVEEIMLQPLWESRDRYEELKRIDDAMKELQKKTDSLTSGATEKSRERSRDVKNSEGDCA

IC50 [µM]	Structure (SMILES)
< 1	C[C@@H]1CN(Cc2ccc3ccccc3n2)C[C@H]1c1nn2c(C3CCOCC3)ncc2c(=O)[nH]1 (single isomer, unassigned) [(+)-2-((3,4-trans)-4-methyl-1-(quinolin-2-ylmethyl)pyrrolidin-3-yl)-7-(tetrahydro-2H-pyran-4-yl)imidazo[5,1-f][1,2,4]triazin-4(3H)-one]
< 1	COc1cccc(CN2C[C@@H](C)[C@H](c3nn4c(C5CCOCC5)ncc4c(=O)[nH]3)C2)n1 (single isomer, unassigned) [(+)-2-((3,4-trans)-1-((6-methoxypyridin-2-yl)methyl)-4-methylpyrrolidin-3-yl)-7-(tetrahydro-2H-pyran-4-yl)imidazo[5,1-f][1,2,4]triazin-4(3H)-one]
< 1	C[C@@H]1CN(Cc2ccccc2)C[C@H]1c1nn2c(-c3ccoc3)ncc2c(=O)[nH]1 (single isomer, unassigned) [(+)-2-((3,4-trans)-1-benzyl-4-methylpyrrolidin-3-yl)-7-(furan-3-yl)imidazo[5,1-f][1,2,4]triazin-4(3H)-one]
< 1	Cc1cc(F)ccc1-c1ncc2c(=O)[nH]c([C@@H]3CN(Cc4ccccc4)C[C@H]3C)nn12 (single isomer, unassigned) [(+)-2-((3,4-trans)-1-benzyl-4-methylpyrrolidin-3-yl)-7-(4-fluoro-2-methylphenyl)imidazo[5,1-f][1,2,4]triazin-4(3H)-one]
< 1	CC1CN(Cc2ccccc2)CC1c1nn2c(C34CC5CC(CC(C5)C3)C4)ncc2c(=O)[nH]1 (single isomer, unassigned; (+))
< 1	CC1CN([C@@H](C)c2ccccc2)CC1c1nn2c(C3CCOCC3)ncc2c(=O)[nH]1 (single isomer, unassigned; (+))
< 1	C[C@@H]1CN(Cc2ncccn2)C[C@H]1c1nn2c(C3CCOCC3)ncc2c(=O)[nH]1 (single isomer, unassigned) [(+)-2-((3,4-trans)-4-methyl-1-(pyrimidin-2-ylmethyl)pyrrolidin-3-yl)-7-(tetrahydro-2H-pyran-4-yl)imidazo[5,1-f][1,2,4]triazin-4(3H)-one]
< 1	C[C@@H]1CN(Cc2ccc(F)cc2)C[C@H]1c1nn2c(C3CCOCC3)ncc2c(=O)[nH]1 (single isomer, unassigned) [(+)-2-((3,4-trans)-1-(4-fluorobenzyl)-4-methylpyrrolidin-3-yl)-7-(tetrahydro-2H-pyran-4-yl)imidazo[5,1-f][1,2,4]triazin-4(3H)-one]
< 1	Cc1cc(F)ccc1-c1ncc2c(=O)[nH]c([C@@H]3CN(Cc4ncccn4)C[C@H]3C)nn12 (single isomer, unassigned) [(−)-7-(4-fluoro-2-methylphenyl)-2-((3,4-trans)-4-methyl-1-(pyrimidin-2-ylmethyl)pyrrolidin-3-yl)imidazo[5,1-f][1,2,4]triazin-4(3H)-one]
1 to 10	Cc1ccc(Cl)cc1-c1ncc2c(=O)[nH]c([C@@H]3CNC[C@H]3C)nn12 (relative stereo) [(−)-7-(5-chloro-2-methylphenyl)-2-((3,4-trans)-4-methylpyrrolidin-3-yl)imidazo[5,1-f][1,2,4]triazin-4(3H)-one]
1 to 10	C[C@@H]1CN(Cc2ccccc2)C[C@H]1c1nn2c(-c3ccoc3)ncc2c(=O)[nH]1 (single isomer, unassigned) [(−)-2-((3,4-trans)-1-benzyl-4-methylpyrrolidin-3-yl)-7-(furan-3-yl)imidazo[5,1-f][1,2,4]triazin-4(3H)-one]
> 10	CC(=O)N1CCC(c2ncc3c(=O)[nH]c([C@@H]4CN(Cc5ccccc5)C[C@H]4C)nn23)CC1 (single isomer, unassigned) [(−)-7-(1-acetylpiperidin-4-yl)-2-((3,4-trans)-1-benzyl-4-methylpyrrolidin-3-yl)imidazo[5,1-f][1,2,4]triazin-4(3H)-one]
< 1	C[C@@H]1CN(Cc2ccc3nccn3n2)C[C@H]1c1nn2c(C3CCOCC3)ncc2c(=O)[nH]1 (single isomer, unassigned) [(−)-2-((3,4-trans)-1-(imidazo[1,2-b]pyridazin-6-ylmethyl)-4-methylpyrrolidin-3-yl)-7-(tetrahydro-2H-pyran-4-yl)imidazo[5,1-f][1,2,4]triazin-4(3H)-one]
< 1	C[C@@H]1CN(Cc2cn3ncccc3n2)C[C@H]1c1nn2c(C3CCOCC3)ncc2c(=O)[nH]1 (single isomer, unassigned) [(+)-2-((3,4-trans)-1-(imidazo[1,2-b]pyridazin-2-ylmethyl)-4-methylpyrrolidin-3-yl)-7-(tetrahydro-2H-pyran-4-yl)imidazo[5,1-f][1,2,4]triazin-4(3H)-one]
1 to 10	Cc1ccccc1-c1ncc2c(=O)[nH]c([C@@H]3CN(Cc4ncccn4)C[C@H]3C)nn12 (single isomer, unassigned) [(−)-2-((3,4-trans)-4-methyl-1-(pyrimidin-2-ylmethyl)pyrrolidin-3-yl)-7-(o-tolyl)imidazo[5,1-f][1,2,4]triazin-4(3H)-one]
1 to 10	CC(=O)N1CCC(c2ncc3c(=O)[nH]c([C@@H]4CN(Cc5ncccn5)C[C@H]4C)nn23)CC1 (single isomer, unassigned) [(+)-7-(1-acetylpiperidin-4-yl)-2-((3,4-trans)-4-methyl-1-(pyrimidin-2-ylmethyl)pyrrolidin-3-yl)imidazo[5,1-f][1,2,4]triazin-4(3H)-one]
< 1	CC(=O)N1CCC(c2ncc3c(=O)[nH]c([C@@H]4CN(Cc5ccccc5)C[C@H]4C)nn23)CC1 (single isomer, unassigned) [(+)-7-(1-acetylpiperidin-4-yl)-2-((3,4-trans)-1-benzyl-4-methylpyrrolidin-3-yl)imidazo[5,1-f][1,2,4]triazin-4(3H)-one]
> 10	CC(=O)N1CCC(c2ncc3c(=O)[nH]c([C@@H]4CN(Cc5ncccn5)C[C@H]4C)nn23)CC1 (single isomer, unassigned) [(−)-7-(1-acetylpiperidin-4-yl)-2-((3,4-trans)-4-methyl-1-(pyrimidin-2-ylmethyl)pyrrolidin-3-yl)imidazo[5,1-f][1,2,4]triazin-4(3H)-one]
> 10	Cc1cc(F)ccc1-c1ncc2c(=O)[nH]c([C@@H]3CN(Cc4ccccc4)C[C@H]3C)nn12 (single isomer, unassigned) [(−)-2-((3,4-trans)-1-benzyl-4-methylpyrrolidin-3-yl)-7-(4-fluoro-2-methylphenyl)imidazo[5,1-f][1,2,4]triazin-4(3H)-one]
< 1	C[C@@H]1CN(Cc2ccc3ccccc3n2)C[C@H]1c1nn2c(C3CCOCC3)ncc2c(=O)[nH]1 (single isomer, unassigned) [(−)-2-((3,4-trans)-4-methyl-1-(quinolin-2-ylmethyl)pyrrolidi] [(−)-2-((3,4-trans)-4-methyl-1-(quinolin-2-ylmethyl)pyrrolidin-3-yl)-7-(tetrahydro-2H-pyran-4-yl)imidazo[5,1-f][1,2,4]triazin-4(3H)-one]
1 to 10	CCS(=O)(=O)N1CCC(c2ncc3c(=O)[nH]c([C@@H]4CN(Cc5ncccn5)C[C@H]4C)nn23)CC1 (single isomer, unassigned) [(+)-7-(1-(ethylsulfonyl)piperidin-4-yl)-2-((3,4-trans)-4-methyl-1-(pyrimidin-2-ylmethyl)pyrrolidin-3-yl)imidazo[5,1-f][1,2,4]triazin-4(3H)-one]
< 1	C[C@@H]1CN(Cc2cn3ncccc3n2)C[C@H]1c1nn2c(C3CCOCC3)ncc2c(=O)[nH]1 (single isomer, unassigned) [(−)-2-((3,4-trans)-1-(imidazo[1,2-b]pyridazin-2-ylmethyl)-4-] [(−)-2-((3,4-trans)-1-(imidazo[1,2-b]pyridazin-2-ylmethyl)-4-methylpyrrolidin-3-yl)-7-(tetrahydro-2H-pyran-4-yl)imidazo[5,1-f][1,2,4]triazin-4(3H)-one]
< 1	C[C@@H]1CN(Cc2ccccn2)C[C@H]1c1nn2c(C3CCOCC3)ncc2c(=O)[nH]1 (single isomer, unassigned) [(+)-2-((3,4-trans)-4-methyl-1-(pyridin-2-ylmethyl)pyrrolidin-3-yl)-7-(tetrahydro-2H-pyran-4-yl)imidazo[5,1-f][1,2,4]triazin-4(3H)-one]

From US9540380B2, “Imidazotriazinone compounds” (Ironwood Pharmaceuticals, Inc., priority 2010, dated 2017)
